Data reported in PMC12621189, “Optimization of Selective and CNS Penetrant Alkyne-Based TREK Inhibitors: The Discovery and Characterization of ONO-9517601 (VU6022856) and ONO-7927846 (VU6024391)” (Journal of Medicinal Chemistry, 2025).

Columns and labels:
human TREK-1 (hTREK-1) = molecular target: T1, human TREK-1 (hTREK-1) (Homo sapiens, UniProt O95069); assay: TREK-1 thallium flux assay (CHO-K1 cells stably expressing hTREK-1); format: cell-based; conditions: human TREK-1, thallium flux; read-out: h TREK-1 Tl+ IC50
T1 construct: expressed in transfected cells
T1 sequence (O95069 1-426): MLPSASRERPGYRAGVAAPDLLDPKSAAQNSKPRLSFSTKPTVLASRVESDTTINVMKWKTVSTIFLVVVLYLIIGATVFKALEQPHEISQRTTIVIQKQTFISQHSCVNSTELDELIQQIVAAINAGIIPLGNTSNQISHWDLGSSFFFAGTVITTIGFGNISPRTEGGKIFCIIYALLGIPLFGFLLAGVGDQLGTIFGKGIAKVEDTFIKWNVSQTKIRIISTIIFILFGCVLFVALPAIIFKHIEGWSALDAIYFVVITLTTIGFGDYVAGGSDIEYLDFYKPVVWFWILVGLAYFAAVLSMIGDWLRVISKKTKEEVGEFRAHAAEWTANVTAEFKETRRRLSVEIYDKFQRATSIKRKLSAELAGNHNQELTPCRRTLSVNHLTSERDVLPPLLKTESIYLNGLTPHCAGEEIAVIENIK
Method: Procedures for Biological Experiments
TREK-1 Thallium flux assay
CHO-K1 cells stably expressing hTREK-1 were cultured in T225 flask. The cells were loaded with FluxOR dye and plated in 384 well plate at the experiment day. Test compounds or control compound (tert-butyl (3-((4-(benzyloxy)-2-methylphenyl)carbamoyl)-4-chlorophenyl)carbamate) or 0.3% DMSO (vehicle control) were added directly to the cell plates and incubated for 10 min, and then treated with thallium stimulus buffer to initiate thallium flux.
To measure the efficacy and potency of test compounds, the change in fluorescence intensity (ΔRatio) and % inhibition were calculated using the following equations:
ΔRatio = (fluorescence intensity at 25 seconds after thallium addition)/(average of fluorescent intensity before thallium addition)
(§1) 0.3% DMSO - ΔRatio of 10 μM control compound)}x100
(§2) % inhibition vs compound concentration were plotted in XLfit and calculated IC50.
CHO-K1 cells stably expressing human TREK-1 (hTREK-1) were cultured in T225 flask.
The cells were loaded with FluxOR dye and plated in 384 well plate at the experiment day. Test compounds or control compound (tert-butyl (3-((4-(benzyloxy)-2-methylphenyl)carbamoyl)-4-chlorophenyl)carbamate) or 0.3% DMSO (vehicle control) which were prepared on separate plates were added to the cell plates and incubated for 10 min, and then the cells with test compounds or […]
chlorophenyl)carbamate) or 0.3% DMSO (vehicle control) were treated with thallium stimulus buffer to initiate thallium flux. To measure the efficacy and potency of test compounds, the change in fluorescence intensity (ΔRatio) and % inhibition were calculated using the following equations: […]

ChromatoLogD = format: physicochemical
human TREK-2 (hTREK-2) = molecular target: T2, human TREK-2 (hTREK-2) (Homo sapiens, UniProt P57789); assay: TREK-2 thallium flux assay (HEK293 cells stably expressing hTREK-2); format: cell-based; conditions: human TREK-2, thallium flux; read-out: h TREK-2 Tl+ IC50
T2 construct: expressed in transfected cells
T2 sequence (P57789 1-538): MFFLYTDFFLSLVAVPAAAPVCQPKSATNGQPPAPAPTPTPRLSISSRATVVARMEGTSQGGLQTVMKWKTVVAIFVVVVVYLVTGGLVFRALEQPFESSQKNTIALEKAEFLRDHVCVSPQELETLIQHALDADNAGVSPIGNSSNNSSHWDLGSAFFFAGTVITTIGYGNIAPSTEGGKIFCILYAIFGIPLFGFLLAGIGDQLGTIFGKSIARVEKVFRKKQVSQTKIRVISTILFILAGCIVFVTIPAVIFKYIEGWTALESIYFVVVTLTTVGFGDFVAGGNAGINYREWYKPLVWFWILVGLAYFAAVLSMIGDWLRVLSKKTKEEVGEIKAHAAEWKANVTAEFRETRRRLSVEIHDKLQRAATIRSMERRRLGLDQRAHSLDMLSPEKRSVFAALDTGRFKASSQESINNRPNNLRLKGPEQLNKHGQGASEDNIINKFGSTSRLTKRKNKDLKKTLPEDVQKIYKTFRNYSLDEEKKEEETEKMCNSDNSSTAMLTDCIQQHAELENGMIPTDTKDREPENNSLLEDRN
Method: as §1, §2
TREK-2 Thallium flux assay
HEK293 cells stably expressing human TREK-2 (hTREK-2) are plated in 384-well plates, cultured overnight, loaded with Thallos dye the following day. Test compounds or control compound (tert-butyl (3-((4-(benzyloxy)-2-methylphenyl)carbamoyl)-4-chlorophenyl)carbamate) or 0.3% DMSO (vehicle control) which are prepared on separate plates are added to the cell plates and incubated for 10 min, and then the cells were treated with thallium stimulus buffer to initiate […]
To measure the efficacy and potency of test compounds, the change in fluorescence intensity (ΔRatio) and % inhibition are calculated using the following equations: […]

| IC50 (human TREK-1 (hTREK-1)) [nM] | chromatographic logD (ChromatoLogD) | IC50 (human TREK-2 (hTREK-2)) [nM] | Compound |
| --- | --- | --- | --- |
| 670 | – | – | Cc1cc(C#Cc2ccccc2)cnc1NC(=O)c1c(Cl)cnn1CC1COCCO1 (stereo not drawn) [Compound 8, 1-((1,4-Dioxan-2-yl)methyl)-4-chloro-N-(3-methyl-5-(phenylethynyl)pyridin-2-yl)-1H-pyrazole-5-carboxamide] |
| 140 | 5.15 | – | Cc1cc(C#Cc2ccccc2)cnc1NC(=O)c1cc(NC(=O)OC(C)(C)C)ccc1Cl [Compound 13e] |
| 200 | – | – | Cc1cc(C#Cc2ccccc2)cnc1NC(=O)c1c(Cl)cnn1CC1CCOCC1 [Compound 14b, 4-Chloro-N-(3-methyl-5-(phenylethynyl)pyridin-2-yl)-1-((tetrahydro-2H-pyran-4-yl)methyl)-1H-pyrazole-5-carboxamide] |
| 98 | – | 280 | CC(=O)N1CCC(n2ncc(Cl)c2C(=O)Nc2ncc(C#Cc3ccccc3)cc2C)C(F)C1 (stereo not drawn) [Compound 16a, 1-(1-Acetyl-3-fluoropiperidin-4-yl)-4-chloro-N-(3-methyl-5-(phenylethynyl)pyridin-2-yl)-1H-pyrazole-5-carboxamide] |
| 160 | – | 530 | CC(=O)N1CC[C@@H](n2ncc(Cl)c2C(=O)Nc2ncc(C#Cc3ccccc3)cc2C)[C@@H](F)C1 [Compound 16c, 1-((3S,4R)-1-Acetyl-3-fluoropiperidin-4-yl)-4-chloro-N-(3-methyl-5-(phenylethynyl)pyridin-2-yl)-1H-pyrazole-5-carboxamide] |
| – | – | 530 | CC(=O)N1CC[C@H](n2ncc(Cl)c2C(=O)Nc2ncc(C#Cc3ccccc3)cc2C)[C@H](F)C1 [Compound 16d, 1-((3R,4S)-1-Acetyl-3-fluoropiperidin-4-yl)-4-chloro-N-(3-methyl-5-(phenylethynyl)pyridin-2-yl)-1H-pyrazole-5-carboxamide] |
| 70 | – | 330 | CC(=O)N1CC[C@H](n2ncc(Cl)c2C(=O)Nc2ncc(C#Cc3ccccc3)cc2F)[C@H](F)C1 [Compound 16e, 1-((3R,4S)-1-Acetyl-3-fluoropiperidin-4-yl)-4-chloro-N-(3-fluoro-5-(phenylethynyl)pyridin-2-yl)-1H-pyrazole-5-carboxamide] |
| – | – | 470 | CC(=O)N1CC[C@H](n2ncc(Cl)c2C(=O)Nc2ncc(C#Cc3ccccc3)cc2F)[C@@H](F)C1 [Compound 16f, 1-((3S,4S)-1-Acetyl-3-fluoropiperidin-4-yl)-4-chloro-N-(3-fluoro-5-(phenylethynyl)pyridin-2-yl)-1H-pyrazole-5-carboxamide] |
